Numbers after ± are expanded uncertainties.
Assay: activity coefficient (dimensionless); of the first substance listed, at infinite dilution; xn = mol fraction of the nth substance listed
Conditions: 101.33 kPa, Liquid, Chromatography, x1 = 0

| SMILES | activity coefficient (313 K) | activity coefficient (323 K) | activity coefficient (333 K) | activity coefficient (343 K) |
| --- | --- | --- | --- | --- |
| ClC(Cl)(Cl)Cl [tetrachloromethane] + O=S(=O)([N-]S(=O)(=O)C(F)(F)F)C(F)(F)F.O=S(=O)([N-]S(=O)(=O)C(F)(F)F)C(F)(F)F.O=S(=O)([N-]S(=O)(=O)C(F)(F)F)C(F)(F)F.c1ccc2cc(-n3cc[n+](Cc4cc(C[n+]5ccn(-c6ccc7ccccc7c6)c5)cc(C[n+]5ccn(-c6ccc7ccccc7c6)c5)c4)c3)ccc2c1 | 4.72 ± 0.51 | 4.27 ± 0.47 | 3.29 ± 0.38 | 2.6 ± 0.31 |
| Cc1ccccc1 [toluene] + O=S(=O)([N-]S(=O)(=O)C(F)(F)F)C(F)(F)F.O=S(=O)([N-]S(=O)(=O)C(F)(F)F)C(F)(F)F.O=S(=O)([N-]S(=O)(=O)C(F)(F)F)C(F)(F)F.c1ccc2cc(-n3cc[n+](Cc4cc(C[n+]5ccn(-c6ccc7ccccc7c6)c5)cc(C[n+]5ccn(-c6ccc7ccccc7c6)c5)c4)c3)ccc2c1 | 3.82 ± 0.43 | 3.05 ± 0.35 | 2.42 ± 0.29 | 1.69 ± 0.23 |

— the NIST ThermoML archive (doi:10.1021/acs.jced.8b00601)
